Converted amounts (≈) assume the structure as drawn. Read-outs that look alike come from different tables or passages of the source.
Assays:
human TRPV1 [1] = target: T1, human TRPV1 (Homo sapiens (Human), UniProt Q8NER1); experiment: Capsaicin-based assay, Protocol 2, TRPV1/CHO cells (hCAP-CHO), Fluo-4 FLIPR; format: cell-based; details: 100 nM capsaicin, mean ± SEM
Excerpt: The TRPV1/CHO cell line was generated as described below. […] The resulting PCR products were purified from agarose gels using Gel Band Purification Kit (GE Healthcare Bioscience) and were subcloned into pCR-Blunt vector (Invitrogen). The cloned cDNA was fully sequenced using a fluorescent dye-terminator reagent (BigDye Terminator ver3.1 Cycle Sequencing Kit, Applied Biosystems) and ABI Prism 3100 genetic analyzer (Applied Biosystems). The pCR-Blunt vector containing the hTRPV1 cDNA was subjected to restriction digestion with EcoR1. The restriction fragment was subcloned into expression vector pcDNA3.1(-) (Invitrogen) and named pcDNA3.1(-)-hVR1 plasmid. The sequence of the cDNA encoding TRPV1 is available at GenBank accession number AJ277028. […] The cells were transfected with the pcDNA3.1(-)-hVR1 plasmid using FuGENE6 (Roche) according to the manufacturer's protocol. 24 hr after transfection, neomycin-resistant cells were selected using 1 mg/mL G418 (Nacalai Tesque). […] The cells expressing hTRPV1 were cultured in the growth medium supplemented with 1 mg/mL G418. […] Capsaicin-based Assay: […] Subsequently, the cells were loaded by incubation in 0.1 mL of wash buffer containing Fluo-4 at 3 μM final concentration. After 1 hour, the cells were washed twice with 0.2 mL wash buffer and resuspended in 0.1 mL wash buffer. The plates were then transferred to a Fluorescence Imaging Plate Reader (Molecular Devices). Fluorescence intensity was monitored for 15 seconds to establish a baseline. […] The final concentration of the compound was adjusted to range from 100 μM to 1.5625 μM. […] Data were collected over the entire time course and analyzed using Excel and the curve-fitting formula GraphPad Prism.

human TRPV1 [2] = target: T1, human TRPV1; experiment: pH-based assay, Protocol 2, TRPV1/CHO cells (hpH-CHO), Fura-2 Ca2+ influx; format: cell-based; details: pH 5.0-5.1 (H2SO4), mean ± SEM
Procedure: For Protocol 2, a Chinese Hamster Ovary cell line (CHO) that has been engineered to constitutively express human recombinant TRPV1 was used (TRPV1/CHO cells). The TRPV1/CHO cell line was generated as described below.
TRPV1/CHO cells were seeded in the 96-well clear-bottom black-wall plate (Nunc) at densities of 1-2×10^4 cells/well and grown in 100 μL of culture medium (alpha-MEM supplemented with 10% FBS, 20 mM HEPES, 1 mg/mL geneticin and 1% antibiotic-antimycotic mixed stock solution) for 1-2 days before the experiment.
(1) Culture medium was removed using an 8-channel-pipette (Rainin, USA) from the 96-well plate and the wells were refilled with 100 μL of loading buffer (20 mM HEPES, 115 mM NaCl, 5.4 mM KCl, 0.8 mM MgCl2, 1.8 mM CaCl2, 13.8 mM D-glucose, 2.5 mM probenecid, pH 7.4) containing 5 μM Fura-2 AM (Dojin, Japan).
(2) The 96-well plate was incubated at 37° C. for 45 min.
(3) The loading buffer was removed from each well. The cells were subsequently washed twice with 150 μL of measuring buffer (20 mM HEPES, 115 mM NaCl, 5.4 mM KCl, 0.8 mM MgCl2, 5.0 mM CaCl2, 13.8 mM D-glucose, 0.1% BSA, pH 7.4) (no probenecid). The wells were then refilled with 80 μL of measuring buffer.
(4) After an incubation at 4° C. for 15 min, the 96-well plate was transferred to a model FDSS-3000 plate reader apparatus (Hamamatsu Photonics K.K., Japan).
(5) The Fura-2 fluorescent intensity was monitored at a wavelength of 340 nm and at 380 nm, respectively, at a rate of 0.5 Hz for a total of 240 seconds. After 16 time points (32 sec) of baseline detection, 20 μL of agonist solution was added to each well. The final volume was 100 μL/well.
(6) Fluorescence intensity ratio refers to the fluorescence intensity at 340 nm over the fluorescence intensity at 380 nm at a particular time point. The baseline was set as the average of the fluorescent intensity ratios for the first 16 time points before the addition of agonist solution. The maximum response was the highest fluorescent intensity ratio during the 60 time points following addition of agonist solution.
(7) Maximal signal ratios from each well were calculated as output data using the FDSS-3000 analysis program. Data were analyzed using Excel (Microsoft) and XLfit (idbs) software.
In an “agonist plate,” two different agonist solutions with different H2SO4 concentrations were used for the pH assay (see, e.g., FIG. 3A of U.S. Patent Application Publication No. US 2009/0170868 A1). For the first half of a 96-well plate one agonist solution was used; for the second half the other agonist solution was used. The agonist solutions were obtained by diluting sulfuric acid (1M H2SO4) with measuring buffer. The concentrations for the two agonist solutions were determined as described above in Section 2 of Protocol 2.
The sulfuric acid concentrations between the two agonist solutions differed by 0.5 mM. In the experiment described in Section 2 of Protocol 2, the sulfuric acid concentrations in the agonist solutions were determined to be 16 mM and 16.5 mM, respectively. After 1:4 dilution of the agonist solutions, the final sulfuric acid concentration was 3.2 mM and 3.3 mM, respectively. The resulting pH value for the pH assay was 5.0 to 5.1.
Test compounds were dissolved in DMSO to yield 1 mM stock solutions. The stock solutions were further diluted using DMSO in […] serial dilution steps with 6 points (1000, 250, 62.5, 15.625, 3.9062, and 0.977 μM). The thereby-obtained solutions were further diluted in measuring buffer (1:100) as 10× stock serial dilutions with a DMSO concentration of 1%. 10 μL of a 10× stock was added into each well of an “antagonist plate” (see step 3.3.(4) below). Thus, the final concentrations of antagonists was as follows: 0.977, 3.906, 15.63, 62.5, 250, and 1000 nM containing 0.1% DMSO (see, e.g., FIG. 3B of U.S. Patent Application Publication No. US 2009/0170868 A1).
Steps (1) and (2) of this Assay were the same as steps 2.2.(1) and 2.2.(2), respectively, of Protocol 2. […]

[3] = Aqueous solubility at pH 1.2 and pH 6.8; format: physicochemical; details: aqueous solution
[4] = In vivo assay of body temperature increase (rectal body temperature); design: species or system rat; details: rats, oral, 10 mL/kg of 1 mg/mL in 0.5% methylcellulose; greatest ΔTb versus vehicle control at 0.5, 1 or 2 hrs
Excerpt: Hyperthermia or undesirable elevation in animal body temperature is known to be an undesirable side-effect accompanying the administration of certain TRPV1 antagonists (Gavva, “Body-temperature maintenance as the predominant function of the vanilloid receptor TRPV1,” Trends Pharmacol. Sci. 29(11):550-557 (2008)).
Test Animals: Selection of rats (Crl/SD rats, 7 weeks, male) was based on rectal body temperature measured during the morning of the day of dosing as described below. In addition, to minimize spontaneous, stress-induced increases in body temperature, rats were acclimated in advance to both the rectal measurement procedure and to being handled and dosed. All lodging and testing took place in animal care laboratories with constant room temperature and humidity. The rats were free to move and ingest food and water throughout. Each rat was coded with a colored line on the tail, housed in a separate cage, and permitted the normal range of movement. Immediately before each body temperature measurement, a rat was transferred to a measurement cage. To reduce stress which could influence its body temperature, each rat was covered with towels during the measurement. A thermistor probe was then carefully inserted into the rectum of each rat and left in place until the temperature reading on the digital display had stabilized; this value was recorded.
Assay: On the day before dosing, rectal body temperature was measured at 9:00, 10:00, 11:00, 12:30, 13:30, 14:30, and 15:30 o'clock to familiarize the rats with the measurement procedure prior to administration of the test or control treatments. The rats were also dosed by oral gavage without vehicle at 12:30 o'clock to acclimate and familiarize them with the handling and dosing procedure.
On the day of dosing, only rats with rectal body temperatures within the range of from 37.0° C. to 37.7° C. were selected for study. Rectal body temperatures were measured at 9:00, 10:00, and 11:00 o'clock. Rats were excluded from the study if either their rectal body temperature was over 37.9° C. at 10:00 o'clock or was outside the range of from 37.0° C. to 37.7° C. at 11:00 o'clock. The selected rats were divided into several groups based on their rectal body temperatures at 11:00 o'clock. Rectal body temperatures of the selected rats were measured again at 12:30 o'clock and any rat with a rectal body temperature of 38.0° C. or greater was also excluded from the study.
Following assignment to either a test or control group, a test compound or a control was administered to the rats. Each test compound was dissolved in a vehicle of 0.5% aqueous methylcellulose solution and the final concentration of the test compound was adjusted to 1 mg/mL. Each test compound was orally administered once at a dose of 10 mL/kg. The same volume of the control (vehicle only) was administered once to the control group. Rectal body temperatures were measured at the following time points: 0.5, 1, and 2 hrs after administration.
The body temperature increase (ΔTb) for each test compound was calculated by subtracting, at each time point, the average temperature of the control group from the average temperature of the group administered that test compound. The greatest ΔTb obtained for each test compound at any of the time points is shown in Table 11 below, along with the ΔTb of the control.

[5] = pH 1.2, simulated gastric fluid, read-out: aqueous solubility at pH 1.2
[6] = pH 6.8, aqueous buffer, read-out: aqueous solubility at pH 6.8

T1 sequence (Q8NER1 whole entry, looked up, the tested form may be a part): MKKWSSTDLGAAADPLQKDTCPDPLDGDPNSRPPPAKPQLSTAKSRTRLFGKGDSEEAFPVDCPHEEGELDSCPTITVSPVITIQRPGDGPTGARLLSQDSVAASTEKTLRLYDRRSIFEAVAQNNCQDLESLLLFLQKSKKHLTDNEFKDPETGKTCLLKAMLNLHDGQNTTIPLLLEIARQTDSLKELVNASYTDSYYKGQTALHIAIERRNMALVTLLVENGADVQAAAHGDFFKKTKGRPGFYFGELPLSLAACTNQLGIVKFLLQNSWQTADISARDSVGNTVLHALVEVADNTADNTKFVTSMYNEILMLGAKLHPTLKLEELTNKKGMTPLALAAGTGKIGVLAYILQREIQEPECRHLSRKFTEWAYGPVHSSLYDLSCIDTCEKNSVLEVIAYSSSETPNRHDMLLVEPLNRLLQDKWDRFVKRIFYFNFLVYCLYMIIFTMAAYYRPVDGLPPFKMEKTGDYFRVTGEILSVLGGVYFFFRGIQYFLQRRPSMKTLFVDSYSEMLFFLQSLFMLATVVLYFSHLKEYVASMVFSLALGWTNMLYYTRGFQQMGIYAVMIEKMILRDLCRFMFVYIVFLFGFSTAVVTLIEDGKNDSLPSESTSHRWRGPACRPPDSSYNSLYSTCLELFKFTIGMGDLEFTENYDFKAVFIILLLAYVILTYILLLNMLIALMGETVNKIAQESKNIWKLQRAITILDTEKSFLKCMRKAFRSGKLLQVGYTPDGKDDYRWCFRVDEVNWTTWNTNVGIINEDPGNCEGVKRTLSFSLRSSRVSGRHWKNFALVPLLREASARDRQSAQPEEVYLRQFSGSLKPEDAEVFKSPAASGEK

| Structure (SMILES) | IC50 (human TRPV1 [1]) | IC50 (human TRPV1 [2]) | solubility [3, 5] | solubility [3, 6] | ΔTb, body temperature increase [4] |
| --- | --- | --- | --- | --- | --- |
| C[C@H](O)[C@@H](O)c1cnc(N2CCN(C(=O)Nc3nc4cc(F)ccc4s3)[C@@H](C)C2)c(F)c1 [B155(h), (S)-4-{5-[(1S,2S)-1,2-dihydroxypropyl]-3-fluoropyridin-2-yl}-N-(5-fluorobenzo[d]thiazol-2-yl)-2-methylpiperazine-1-carboxamide] | 107 ± 20 nM |  |  |  |  |
| C[C@@H](O)[C@H](O)c1cnc(N2CCN(C(=O)Nc3nc4ccc(F)cc4s3)C[C@@H]2C)c(F)c1 [B125(p), (S)-4-Z{5-[(1R,2R)-1,2-dihydroxypropyl]-3-fluoropyridin-2-yl}-N-(5-fluorobenzo[d]thiazol-2-yl)-3-methylpiperazine-1-carboxamide] | 171 ± 1 nM | 211 ± 50 nM |  |  |  |
| C[C@H]1CN(c2ncc([C@@H](O)CO)cc2F)CCN1C(=O)Nc1nc2cc(F)ccc2s1 [A155(d), (S)-4-{5-[(R)-1,2-dihydroxyethyl]-3-fluoropyridin-2-yl}-N-(5-fluorobenzo[d]thiazol-2-yl)-2-methylpiperazine-1-carboxamide] | 168 ± 42 nM |  | > 50 µM | 4 µM (≈ 1.8 µg/mL) | 0.1 °C |
| C[C@H]1CN(C(=O)Nc2nc3ccccc3s2)CCN1c1ncc([C@H](O)CO)cc1F [A122(c), (S)—N-(benzo[d]thiazol-2-yl)-4-{5-[(S)-1,2-dihydroxyethyl]-3-fluoropyridin-2-yl}-3-methylpiperazine-1-carboxamide] | 178 ± 29 nM | 553 ± 12 nM |  |  |  |
| C[C@@H]1CN(C(=O)Nc2nc3cc(F)ccc3s2)CCN1c1ncc([C@H](O)CO)cc1F [A155(b), (R)-4-{5-[(S)-1,2-dihydroxyethyl]-3-fluoropyridin-2-yl}-N-(5-fluorobenzo[d]thiazol-2-yl)-3-methylpiperazine-1-carboxamide] | 216 ± 57 nM | 134 ± 16 nM |  |  |  |
| C[C@H](O)[C@@H](O)c1cnc(N2CCN(C(=O)Nc3nc4ccccc4s3)C[C@H]2C)c(F)c1 [B122(j), (R)—N-(benzo[d]thiazol-2-yl)-4-{5-[(1S,2S)-1,2-dihydroxypropyl]-3-fluoropyridin-2-yl}-3-methylpiperazine-1-carboxamide] | 586 ± 78 nM | 1720 nM |  |  |  |

More lines, in order of falling IC50 (human TRPV1 [1]), values ahead:

| IC50 (human TRPV1 [1]) | IC50 (human TRPV1 [2]) | solubility [3, 5] | solubility [3, 6] | ΔTb, body temperature increase [4] | Structure (SMILES) |
| --- | --- | --- | --- | --- | --- |
| 502 ± 128 nM | 2040 ± 245 nM |  |  |  | C[C@H](O)[C@@H](O)c1cnc(N2CCN(C(=O)Nc3nc4ccccc4s3)C[C@@H]2C)c(F)c1 [B122(k), (S)—N-(benzo[d]thiazol-2-yl)-4-{5-[(1S,2S)-1,2-dihydroxypropyl]-3-fluoropyridin-2-yl}-3-methylpiperazine-1-carboxamide] |
| 344 ± 116 nM | 439 ± 71 nM |  |  |  | C[C@H](O)[C@@H](O)c1cnc(N2CCN(C(=O)Nc3nc4cc(F)ccc4s3)C[C@H]2C)c(F)c1 [B155(j), (R)-4-{5-[(1S,2S)-1,2-dihydroxypropyl]-3-fluoropyridin-2-yl}-N-(5-fluorobenzo[d]thiazol-2-yl)-3-methylpiperazine-1-carboxamide] |
| 194 ± 49 nM | 303 nM |  |  |  | C[C@H](O)[C@@H](O)c1cnc(N2CCN(C(=O)Nc3nc4ccc(F)cc4s3)C[C@H]2C)c(F)c1 [B125(j), (R)-4-{5-[(1S,2S)-1,2-dihydroxypropyl]-3-fluoropyridin-2-yl}-N-(6-fluorobenzo[d]thiazol-2-yl)-3-methylpiperazine-1-carboxamide] |
| 16.5 ± 4.2 nM |  | > 50 µM | 5 µM (≈ 2.25 µg/mL) | 0.1 °C | C[C@@H]1CN(c2ncc([C@@H](O)CO)cc2F)CCN1C(=O)Nc1nc2cc(F)ccc2s1 [A155(e), (R)-4-{5-[(R)-1,2-dihydroxyethyl]-3-fluoropyridin-2-yl}-N-(5-fluorobenzo[d]thiazol-2-yl)-2-methylpiperazine-1-carboxamide] |

— US9273043B2, “TRPV1 antagonists including dihydroxy substituent and uses thereof” (Purdue Pharma L.P., priority 2011, dated 2016)
